Laboratory results published in PubChem BioAssay (NCI).
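Interpolation was linear, between the two tested concentrations surrounding the appropriate level; five concentrations were tested over 48 hours in 96-well plates. GI50 marks 50% less growth. TGI: total growth inhibition.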

Legend:
Experiment in all cases: NCI anticancer screen, dose series, 48 h
[1] = test system: PC-3 prostate
[2] = test system: SK-MEL-5 melanoma
[3] = test system: MCF7 breast
[4] = test system: HS 578T breast
[5] = test system: OVCAR-8 ovarian
[6] = test system: SNB-19 CNS
[7] = test system: T-47D breast
[8] = test system: M14 melanoma
[9] = test system: MDA-MB-435
[10] = test system: OVCAR-5 ovarian
[11] = test system: COLO 205 colon
[12] = test system: LOX IMVI melanoma

Row | Compound | TGI [1] [µM] | TGI [2] [µM] | TGI [3] [µM] | TGI [4] [µM] | TGI [5] [µM] | TGI [6] [µM] | TGI [7] [µM] | TGI [8] [µM] | TGI [9] [µM] | TGI [10] [µM] | TGI [11] [µM] | TGI [12] [µM] | GI50 [6] [µM]
1 | O=c1oc2ccccc2c(O)c1C(c1ccc2ccccc2c1)c1c(O)c2ccccc2oc1=O | > 100 | 54.4 | > 100 | 70.6 | 31.6 | > 100 | > 100 | 73.2 | 59.7 | 62 | 78.2 | > 100 | 
2 | O=C(/C=C/c1c(O)c2ccccc2[nH]c1=O)CC(=O)C(=O)Nc1cccc(O)c1 | > 100 | > 100 | > 100 | > 100 | > 100 | > 100 | > 100 | > 100 | > 100 | > 100 | > 100 | > 100 | 
3 | COc1ccc(OC)c2c(=O)cc(-c3ccccc3)[nH]c12 | > 100 |  | > 100 | > 100 | > 100 | > 100 | > 100 | > 100 | > 100 | > 100 | > 100 | > 100 | 
4 | CC1=CC[C@@]2(C)[C@@H]([C@@H]1C)[C@H]1CC[C@@H]3[C@@]4(C)CC[C@H](O)C(C)(C)[C@@H]4CC[C@@]3(C)[C@]1(C)C[C@@H]2O | 40.6 | > 62 | > 100 | > 74 | 28.7 | > 66.4 | > 74.9 | 32.3 | 70.2 | > 78.2 | 32.1 | 16 | 
5 | Cc1ccc(-c2cnc(NC3OC(COC(=O)c4ccccc4)C(OC(=O)c4ccccc4)C(OC(=O)c4ccccc4)C3OC(=O)c3ccccc3)s2)cc1 (stereo not drawn) | > 100 | > 100 | > 100 | > 100 | > 100 | > 100 | > 100 | > 100 | > 100 | > 100 | > 100 | > 100 | 
6 | O=C1CC(n2cccc2)c2cc(Br)sc21 (stereo not drawn) | > 100 | > 100 | > 100 | > 100 | > 100 | > 100 | > 100 | > 100 | > 100 | > 100 | > 100 | > 100 | 
7 | COc1ccc(-c2cc(=O)c3c(O)c(OC)c(O)cc3o2)cc1O | > 88.1 | 14.9 | 40.9 | 87.3 | > 100 | > 100 | > 100 | > 75 | > 100 | > 100 | 59.6 | 32.7 | 
8 | C/C(=C\c1csc(C)n1)[C@@H]1C[C@@H]2O[C@]2(C)CCC[C@H](C)[C@H](O)[C@@H](C)C(=O)C(C)(C)[C@@H](O)CC(=O)O1 (tested in a mixture with another compound) | > 1 | > 1 | > 1 | > 1 | > 0.33 | > 1 | > 1 | > 1 | 0.00284 | > 1 | 0.119 | > 1 | 0.025
9 | CN(C)Cc1cc(C(=O)/C=C/c2c(Cl)cccc2Cl)cc(CN(C)C)c1O | 19 | 13.9 | 14.7 | 38.7 | 15.2 | 31 | 42 | 18.9 | 21.9 | 32.2 | 7.66 | 4.45 | 
10 | [N-]=[N+]=Nc1cc(=O)n(-c2ccccc2)c(=O)n1-c1ccccc1 | > 100 | > 100 | > 100 | > 100 | > 100 | > 100 | > 100 | > 100 | > 100 | > 100 | > 100 |  | 
11 | CCOC(=O)c1c(-c2ccc(Cl)cc2)c(C#N)c(=S)n(C2OC(CO)C(O)C(O)C2O)c1-c1ccccc1 (stereo not drawn) | 50.4 | 29.3 | 50.5 | 58.6 |  | 52.4 | 54.4 | 37.6 | 48.6 | 40.8 | 80.9 | 33.5 | 
12 | CC(=O)OCCC[C@@H]1C(=C(C)C)CCC2[C@@]1(C)CC[C@@]1(C)C[C@](C)(CCC=C(C)C)CC[C@]21C (stereo partly drawn) | > 100 | > 100 | > 100 | > 100 | > 100 | > 100 | > 100 | > 100 | > 100 | > 100 | > 100 |  | 
13 | C=C(CO)[C@H]1CC/C(C)=C/CC/C(C)=C/C/C=C(\C)[C@H](O)C1 | > 100 | 54.1 | 60.8 | 74.1 | 35.3 | > 100 | > 100 |  | 35.8 | > 100 | 59.9 | 73.8 | 
14 | C#CCOC(=O)C(N)CS (stereo not drawn) | > 100 | > 100 | > 100 | > 100 | > 100 |  | > 100 | > 100 | > 100 | > 100 | > 100 | > 100 | 
